Read-outs that look alike come from different tables or passages of the source.
Assays:
[1] = test system: TNF-α production in LPS-stimulated human whole blood; test: Inhibition of TNF-α production from human whole blood (hWBA); type: cell-based; settings: LPS-stimulated human whole blood, read-out: hWBA
[2] = Area under the curve determination of plasma levels in rats (rrAUC); type: in vivo; settings: rat, oral 10 mg/kg
[3] = IC50 for inhibition of TNF-α production
[4] = plasma 0.5-6 h post-dosing, read-out: RR AUC
[5] = plasma 0.5-6 h, read-out: RR AUC (nM · h), rapid rat AUC (rrAUC)

| Structure (SMILES) | AUC [2, 4] | AUC [2, 5] | IC50 ([1]; IC50 for TNF-α production) | also measured |
| --- | --- | --- | --- | --- |
| COc1ccc2c(c1)C(=O)N(C[C@@]1(C#Cc3ccc(C(O)C4CCN(C)CC4)cc3)NC(=O)NC1=O)C2 (some centres unmarked) [Compound 500] | 0.011 µM·h | – | – | IC50 [1, 3]: 244 nM |
| COc1ccc2c(c1)C(=O)N(C[C@@]1(C#Cc3ccc4c(C)n[nH]c4c3)NC(=O)NC1=O)C2 [Compound 723] | 7.59 µM·h | – | – | IC50 [1, 3]: 2950 nM |
| CON=C(c1ccc(C#C[C@]2(CN3Cc4ccc(OC)cc4C3=O)NC(=O)NC2=O)cc1)N1CCOCC1 [Compound 932] | – | 3.17 µM·h | – | – |
| CCN1CCN(Cc2ccc(C#C[C@]3(CN4Cc5ccc(OC)cc5C4=O)NC(=O)NC3=O)cc2)CC1 [Compound 933] | – | 0.024 µM·h | 238 nM | – |
| COc1ccc2c(c1)C(=O)N(C[C@@]1(C#Cc3ccc(C(=NO)N4CCOCC4)cc3)NC(=O)NC1=O)C2 [Compound 941] | – | 0.058 µM·h | 100 nM | – |
| CCN1CCN(Cc2ccc(C#C[C@]3(CN4Cc5ccc(OC)c(F)c5C4=O)NC(=O)NC3=O)cc2)CC1 [Compound 974] | 0.034 µM·h | – | – | IC50 [1, 3]: 125 nM |
| COc1ccc2c(c1F)C(=O)N(C[C@@]1(C#Cc3ccc(C4(C)NC(=O)NC4=O)c(F)c3)NC(=O)NC1=O)C2 (some centres unmarked) [Compound 1302] | 5.64 µM·h | – | – | – |
| COc1ccc2c(c1F)C(=O)N(C[C@@]1(C#Cc3cncc(F)c3)NC(=O)NC1=O)C2 [Compound 1310] | 1.77 µM·h | – | – | – |
| COc1ccc2c(c1F)C(=O)N(C[C@@]1(C#Cc3ccc(C4(C(N)=O)CCN(C)CC4)cc3)NC(=O)NC1=O)C2 [Compound 1314] | 0.016 µM·h | – | – | IC50 [1, 3]: 152 nM |
| COc1ccc2c(c1)C(=O)N(C[C@@]1(C#Cc3nc(N4C[C@H](O)CC4=O)ccc3OC)NC(=O)NC1=O)C2 [Compound 1503] | 0.035 µM·h | – | – | – |
| COc1ccc2c(c1)C(=O)N(C[C@@]1(C#Cc3ccc(-c4noc(C(C)C)n4)cc3)NC(=O)NC1=O)C2 [Compound 1505] | 0.243 µM·h | – | – | – |
| COc1ccc2c(c1F)C(=O)N(C[C@@]1(C#Cc3ccc(C4(O)CCNCC4)cc3)NC(=O)NC1=O)C2 [Compound 1701] | 0.041 µM·h | – | – | – |
| COc1ccc2c(c1)C(=O)N(C[C@@]1(C#Cc3ccc(N4C(=O)CCC4C(=O)NC4CC4)cc3)NC(=O)NC1=O)C2 (some centres unmarked) [Compound 1902] | 0.025 µM·h | – | – | – |
| COc1ccc2c(c1F)C(=O)N(C[C@@]1(C#Cc3ccc(N4C(=O)CCC4C(=O)NC4CC4)cc3)NC(=O)NC1=O)C2 (some centres unmarked) [Compound 1904] | 0.213 µM·h | – | – | IC50 [1, 3]: 278 nM |
| COc1ccc2c(c1F)C(=O)N(C[C@@]1(C#Cc3ccc4c(c3)CCC43NC(=O)NC3=O)NC(=O)NC1=O)C2 (some centres unmarked) [Compound 2214] | 3.46 µM·h | – | – | IC50 [1, 3]: 186 nM |
| COc1ccc2c(c1)C(=O)N(C[C@@]1(C#Cc3ccc(-c4cc[nH]n4)nc3)NC(=O)NC1=O)C2 [Compound 2235] | 0.23 µM·h | – | – | IC50 [1, 3]: 231 nM |
| COc1ccc2c(c1)C(=O)N(C[C@@]1(C#Cc3ccc(C(=NO)c4ccc(F)cc4)cc3)NC(=O)NC1=O)C2 [Compound 2245] | 1.07 µM·h | – | – | IC50 ([1]; Homo sapiens, IC50 for inhibition of TNF-α production): 954 nM |
| COc1ccc2c(c1Cl)C(=O)N(CC1(C#Cc3cccnc3)NC(=O)NC1=O)C2 (centres unmarked) [Compound 2247] | 0.38 µM·h | – | – | IC50 [1, 3]: 1000 nM |
| COc1ccc2c(c1)C(=O)N(C[C@@]1(C#Cc3cc(Cl)cnc3N)NC(=O)NC1=O)C2 [Compound 2248] | 4.04 µM·h | – | – | – |
| COc1ccc2c(c1)C(=O)N(C[C@@]1(C#Cc3ccc(F)c(C(O)(O)C(F)(F)F)c3)NC(=O)NC1=O)C2 [Compound 2251] | – | 0.171 µM·h | – | – |
| COc1ccc2c(c1)C(=O)N(C[C@@]1(C#Cc3ccc(C(O)(O)C(F)(F)F)cc3)NC(=O)NC1=O)C2 [Compound 2252] | – | 0.768 µM·h | 258 nM | – |
| COc1ccc2c(c1)C(=O)N(C[C@@]1(C#Cc3ccc(-c4noc(C)n4)cc3)NC(=O)NC1=O)C2 [Compound 2253] | – | 4.14 µM·h | 2430 nM | – |
| CCN1CCC(C(=O)OC)(c2ccc(C#C[C@]3(CN4Cc5ccc(OC)cc5C4=O)NC(=O)NC3=O)cc2)CC1 [Compound 2276] | – | 2.32 µM·h | 288 nM | – |

Second part, led by results:

| AUC [2, 4] | AUC [2, 5] | IC50 ([1]; IC50 for TNF-α production) | Structure (SMILES) | also measured |
| --- | --- | --- | --- | --- |
| – | 0.438 µM·h | 398 nM | COc1ccc2c(c1)C(=O)N(C[C@@]1(C#Cc3ccc(C4(C)NC(=O)NC4=S)cc3)NC(=O)NC1=O)C2 (some centres unmarked) [Compound 2258] | – |
| – | 0.126 µM·h | – | COc1ccc2c(c1)C(=O)N(C[C@@]1(C#Cc3ccc([C@H]4CCC(=O)N4)cc3)NC(=O)NC1=O)C2 [Compound 2259] | – |
| – | 0.187 µM·h | 2220 nM | COc1ccc2c(c1)C(=O)N(C[C@@]1(C#Cc3cccnc3-c3cnn(C)c3)NC(=O)NC1=O)C2 [Compound 2263] | – |
| – | 2.44 µM·h | 134 nM | COc1ccc2c(c1F)C(=O)N(C[C@@]1(C#Cc3cccnc3)NC(=O)NC1=O)C2 [Compound 2267] | – |
| – | 1.07 µM·h | 9030 nM | COc1ccc2c(c1)C(=O)N(C[C@@]1(C#Cc3ccc(-c4c(C)nn(C)c4C)nc3)NC(=O)NC1=O)C2 [Compound 2268] | – |
| – | 0.924 µM·h | – | COc1ccc2c(c1)C(=O)N(C[C@@]1(C#Cc3ccc(-c4cnn(C)c4)nc3)NC(=O)NC1=O)C2 [Compound 2269] | – |
| – | 2.89 µM·h | 193 nM | COc1ccc2c(c1F)C(=O)N(C[C@@]1(C#Cc3cccnc3C)NC(=O)NC1=O)C2 [Compound 2273] | – |
| – | 16.4 µM·h | 396 nM | COc1ccc2c(c1F)C(=O)N(C[C@@]1(C#Cc3ccc(C)nc3)NC(=O)NC1=O)C2 [Compound 2274] | – |
| – | 0.271 µM·h | 2090 nM | COc1ccc2c(c1)C(=O)N(C[C@@]1(C#Cc3ccc(-c4ccccc4O)nc3)NC(=O)NC1=O)C2 [Compound 2277] | – |
| – | 0.042 µM·h | 243 nM | COc1ccc2c(c1)C(=O)N(C[C@@]1(C#Cc3ccc(C4(C)NC(=O)NC4=O)c(F)c3)NC(=O)NC1=O)C2 (some centres unmarked) [Compound 2282] | – |
| – | 0.014 µM·h | 137 nM | COc1ccc2c(c1)C(=O)N(C[C@@]1(C#Cc3ccc4c(c3)CCCC43NC(=O)NC3=O)NC(=O)NC1=O)C2 (some centres unmarked) [Compound 2312] | – |
| – | 0.53 µM·h | – | COc1ccc2c(c1)C(=O)N(C[C@@]1(C#Cc3ccc4c(c3)CC[C@]43NC(=O)NC3=O)NC(=O)NC1=O)C2 [Compound 2313] | – |
| – | 0.218 µM·h | – | COc1ccc2c(c1)C(=O)N(C[C@@]1(C#Cc3ccc4c(c3)CC[C@@]43NC(=O)NC3=O)NC(=O)NC1=O)C2 [Compound 2314] | – |

— patent US8541572B2
